The nature of series [1]: The drug is tested on Bifidobacterium ruminantium strain: fecal isolate for biotransformation. The drug concentrations were measured before and after a 12-h incubation by liquid-chromatography-coupled mass spectrometry (LC–MS). Particulars: 2 µM.
The nature of series [2]: The drug is tested on Bacteroides dorei strain: DSM17855 for biotransformation. The drug concentrations were measured before and after a 12-h incubation by liquid-chromatography-coupled mass spectrometry (LC–MS). Particulars: phocaeicola dorei, 2 µM.
The conditions of series [3]: bacteroides thetaiotaomicron, 12 h, 2 µM.
Description: The drug is tested on Bacteroides thetaiotaomicron strain: VPI-5482 for biotransformation. The drug concentrations were measured before and after a 12-h incubation by liquid-chromatography-coupled mass spectrometry (LC–MS)
The conditions of series [4]: anaerostipes sp., 12 h, 2 µM.
Description: The drug is tested on Anaerostipes sp. strain: fecal isolate for biotransformation. The drug concentrations were measured before and after a 12-h incubation by liquid-chromatography-coupled mass spectrometry (LC–MS)
The nature of series [5]: The drug is tested on Clostridium symbiosum strain: ATCC14940 for biotransformation. The drug concentrations were measured before and after a 12-h incubation by liquid-chromatography-coupled mass spectrometry (LC–MS). Particulars: 2 µM.
The conditions of series [6]: segatella copri, 12 h, 2 µM.
Description: The drug is tested on Prevotella copri strain: DSM18205 for biotransformation. The drug concentrations were measured before and after a 12-h incubation by liquid-chromatography-coupled mass spectrometry (LC–MS)
For series [7] the following is noted: bacteroides fragilis, 12 h, 2 µM.
Description: The drug is tested on Bacteroides fragilis strain: 3397 (T10) for biotransformation. The drug concentrations were measured before and after a 12-h incubation by liquid-chromatography-coupled mass spectrometry (LC–MS)
For series [8] the following is noted: roseburia intestinalis, 12 h, 2 µM.
Description: The drug is tested on Roseburia intestinalis strain: L1-82 for biotransformation. The drug concentrations were measured before and after a 12-h incubation by liquid-chromatography-coupled mass spectrometry (LC–MS)
A short description of series [9]: The drug is tested on Ruminococcus lactaris strain: ATCC29176 for biotransformation. The drug concentrations were measured before and after a 12-h incubation by liquid-chromatography-coupled mass spectrometry (LC–MS). Particulars: 2 µM.
The conditions of series [10]: bacteroides thetaiotaomicron, 12 h, 2 µM. The source holds these as a separate data set.
Description: The drug is tested on Bacteroides thetaiotaomicron strain: 7330 for biotransformation. The drug concentrations were measured before and after a 12-h incubation by liquid-chromatography-coupled mass spectrometry (LC–MS)
The conditions of series [11]: bacteroides fragilis, 12 h, 2 µM. This is another data set of the same source.
Description: The drug is tested on Bacteroides fragilis strain: DS-208 for biotransformation. The drug concentrations were measured before and after a 12-h incubation by liquid-chromatography-coupled mass spectrometry (LC–MS)
A short description of series [12]: The drug is tested on Bacteroides pectinophilus strain: ATCC43243 for biotransformation. The drug concentrations were measured before and after a 12-h incubation by liquid-chromatography-coupled mass spectrometry (LC–MS). Particulars: 2 µM.
Series [13] can be described thus: The drug is tested on Bacteroides vulgatus strain: ATCC8482 for biotransformation. The drug concentrations were measured before and after a 12-h incubation by liquid-chromatography-coupled mass spectrometry (LC–MS). Particulars: phocaeicola vulgatus, 2 µM.
The conditions of series [14]: bacteroides eggerthii, 12 h, 2 µM.
Description: The drug is tested on Bacteroides eggerthii strain: DSM20697 for biotransformation. The drug concentrations were measured before and after a 12-h incubation by liquid-chromatography-coupled mass spectrometry (LC–MS)
Series [15] in a line: The drug is tested on Bacteroides uniformis strain: ATCC8492 for biotransformation. The drug concentrations were measured before and after a 12-h incubation by liquid-chromatography-coupled mass spectrometry (LC–MS). Particulars: 2 µM.
The conditions of series [16]: bacteroides intestinalis, 12 h, 2 µM.
Description: The drug is tested on Bacteroides intestinalis strain: DSM17393 for biotransformation. The drug concentrations were measured before and after a 12-h incubation by liquid-chromatography-coupled mass spectrometry (LC–MS)
For series [17] the following is noted: akkermansia muciniphila, 12 h, 2 µM.
Description: The drug is tested on Akkermansia muciniphila strain: ATCC BAA-835 for biotransformation. The drug concentrations were measured before and after a 12-h incubation by liquid-chromatography-coupled mass spectrometry (LC–MS)
Series [18] is described as follows: The drug is tested on Alistipes indistinctus strain: DSM22520 for biotransformation. The drug concentrations were measured before and after a 12-h incubation by liquid-chromatography-coupled mass spectrometry (LC–MS). Particulars: 2 µM.

From ChEMBL document CHEMBL5303573, “Mapping human microbiome drug metabolism by gut bacteria and their genes” (Nature, 2019) come the findings set out here.

For `CCOC(=O)[C@H](CCc1ccccc1)N[C@@H](C)C(=O)N1Cc2ccccc2C[C@H]1C(=O)O`, the “Bacterial Biotransformation” value in series [1] is on record as “Compound metabolized”; in [2], “Compound metabolized”; in [3], “Compound metabolized”; in [4], “Compound NOT metabolized”; in [5], “Compound metabolized”; in series [6], “Compound metabolized”. The “Bacterial Biotransformation” value is “Compound metabolized” in series [7]; “Compound NOT metabolized” in series [8]; “Compound NOT metabolized” in series [9]; “Compound metabolized” in [10]; “Compound metabolized” in series [11]; “Compound metabolized” in series [12]. Also, the “Bacterial Biotransformation” value in series [13], in series [14], in series [15] and in series [16] was “Compound metabolized” in each case.
`CCN(CC)CCNC(=O)c1ccc(NC(C)=O)cc1` [ACECAINIDE]: the “Bacterial Biotransformation” value in [17], in series [3], in series [4], in series [5], in series [6] and in series [7] was “Compound NOT metabolized” in each case. Also, the “Bacterial Biotransformation” value in series [18], in series [8], in series [9], in series [10], in series [11] and in series [12] was “Compound NOT metabolized” in each case. In addition, the “Bacterial Biotransformation” value in [13] is recorded as “Compound NOT metabolized”; in [15], “Compound metabolized”; in series [16], “Compound NOT metabolized”.
On to `O=C1CN2Cc3c(ccc(Cl)c3Cl)N=C2N1` [ANAGRELIDE], for which the “Bacterial Biotransformation” value in [2] is reported as “Compound metabolized”; in series [3] it was “Compound NOT metabolized”; in series [4], “Compound NOT metabolized”; in series [5], “Compound NOT metabolized”; in [7] it was “Compound NOT metabolized”; in series [18], “Compound NOT metabolized”. Further, the “Bacterial Biotransformation” value in series [9], in series [10], in [11], in [12], in series [14] and in series [16] was “Compound NOT metabolized” each time.
`CC(C)NCC(O)COc1ccc(COCCOC(C)C)cc1.CC(C)NCC(O)COc1ccc(COCCOC(C)C)cc1.O=C(O)/C=C/C(=O)O` (stereo not given) [BISOPROLOL FUMARATE]: the “Bacterial Biotransformation” value in series [1], in series [2], in series [3], in [4], in [5] and in series [6] was “Compound NOT metabolized” each time. The “Bacterial Biotransformation” value in series [7], in series [18], in series [8], in [9], in [10] and in series [11] was “Compound NOT metabolized” each time. Also, the “Bacterial Biotransformation” value in series [13], in [14] and in [16] was “Compound NOT metabolized” throughout.
On to `Clc1ccc(Cn2c(CN3CCCC3)nc3ccccc32)cc1` [CLEMIZOLE], for which the “Bacterial Biotransformation” value in series [1], in [3], in series [4], in series [5], in series [6] and in [7] was “Compound NOT metabolized” in each case. The “Bacterial Biotransformation” value in series [18], in [8], in series [9], in [10], in series [11] and in series [12] was “Compound NOT metabolized” each time. Besides, the “Bacterial Biotransformation” value in series [13], in [14], in series [15] and in [16] was “Compound NOT metabolized” in each case.
Take `C[N+]12CCC(CC1)C(OC(=O)C(O)(c1ccccc1)c1ccccc1)C2.[Br-]` (stereo not given) [CLIDINIUM BROMIDE]: the “Bacterial Biotransformation” value in series [17], in series [2], in [3], in [4], in series [5] and in series [6] was “Compound NOT metabolized” each time. The “Bacterial Biotransformation” value in [7], in series [8], in [9], in [10], in series [11] and in series [14] was “Compound NOT metabolized” in each case. Further, the “Bacterial Biotransformation” value in series [15] and in [16] was “Compound NOT metabolized” each time.
Regarding `Clc1cccc(Cl)c1N=C1NCCN1` [CLONIDINE], the “Bacterial Biotransformation” value in series [17] is given as “Compound NOT metabolized”; in [1] it was “Compound NOT metabolized”; in series [2], “Compound metabolized”; in series [3], “Compound metabolized”; in series [4], “Compound NOT metabolized”; in [5] it was “Compound NOT metabolized”. The “Bacterial Biotransformation” value in series [6] is on record as “Compound NOT metabolized”; in series [7], “Compound metabolized”; in series [8], “Compound NOT metabolized”; in [9], “Compound NOT metabolized”; in [10] it was “Compound metabolized”; in series [11], “Compound metabolized”. The “Bacterial Biotransformation” value is recorded as “Compound NOT metabolized” in series [12], “Compound metabolized” in [15] and “Compound NOT metabolized” in series [16].
Regarding `CN1CCN(C2=Nc3cc(Cl)ccc3Nc3ccccc32)CC1` [CLOZAPINE], the “Bacterial Biotransformation” value in series [17], in [1], in series [2], in series [3], in [4] and in series [5] was “Compound NOT metabolized” each time. In addition, the “Bacterial Biotransformation” value in [6], in series [7], in series [9], in series [10], in [11] and in [12] was “Compound NOT metabolized” each time. Also, the “Bacterial Biotransformation” value in series [13], in series [14], in [15] and in series [16] was “Compound NOT metabolized” in each case.
Consider `CN(C)CCC=C1c2ccccc2C=Cc2ccccc21` [CYCLOBENZAPRINE], for which the “Bacterial Biotransformation” value in series [1], in [3], in series [4], in [5], in [6] and in [7] was “Compound NOT metabolized” each time. Besides, the “Bacterial Biotransformation” value in [9], in [11], in [13], in [14] and in [16] was “Compound NOT metabolized” each time.
